According to US12215140B2, “Method of stabilizing protein contained in specimen and solution for stabilizing protein contained in specimen” (EIKEN KAGAKU KABUSHIKI KAISHA, priority 2018, dated 2025):

Target: hemoglobin (Homo sapiens, UniProt P68871+P69905)
Experiment: Stability of hemoglobin in samples preserved at 37° C. in preservation solution containing no haptoglobin, Hb measured by latex agglutination method (Examples 8, 9 and Table 10)
Details: arylboronic acid 0.5 mmol/L
Procedure: Preservation solutions were prepared with the addition of 40 mmol/L HEPES (pH 6.8), 0.1% BSA, 0.1% NaN3, and 0 to 2.5 mmol/L phenylboronic acid. […] Samples obtained by adding hemoglobin-added fecal specimens to the preservation solutions so that the fecal concentration would be 0.5% were preserved at 37° C. for 0, 16, 38, and 62 hours. The fecal specimens were added with hemoglobin having an amount such that the hemoglobin concentration in the samples would be about 300 μg/L. Instead of the fecal specimens to which hemoglobin was added, samples containing no fecal specimens, in which hemoglobin was added to the preservation solutions so that the hemoglobin concentration in the samples would be 300 μg/L, were similarly preserved. The hemoglobin (Hb) concentrations (μg/L) in the preserved samples were measured by the latex agglutination method using the same measurement reagent and measurement device as in Example 1.
The concentration of phenylboronic acid in the preservation solutions of Example 8 was fixed to 0.5 mmol/L, preservation solutions to which sorbitol or sucrose was further added at 10 to 250 mmol/L or trehalose, glucose, fructose, or mannitol was further added at 50 to 100 mmol/L were prepared, and testing was conducted in the same manner as in Example 8. In addition, preservation solutions to which the phenylboronic acid was added but no sugar was added were prepared, preservation solutions to which the phenylboronic acid and sugar were not added were prepared for the comparative examples, and testing was conducted in the same manner.
For comparative examples, preservation solutions to which no arylboronic acid was added were prepared, and testing was conducted in the same manner.

[1] = Feces 1, 0 h at 37° C., no sugar
[2] = Feces 1, 16 h at 37° C., no sugar
[3] = Feces 1, 38 h at 37° C., no sugar
[4] = Feces 1, 62 h at 37° C., no sugar
[5] = Feces 2, 0 h at 37° C., no sugar
[6] = Feces 2, 16 h at 37° C., no sugar
[7] = Feces 2, 38 h at 37° C., no sugar
[8] = Feces 2, 62 h at 37° C., no sugar
[9] = Feces 3, 0 h at 37° C., no sugar
[10] = Feces 3, 16 h at 37° C., no sugar
[11] = Feces 3, 38 h at 37° C., no sugar
[12] = Feces 3, 62 h at 37° C., no sugar
[13] = No feces, 0 h at 37° C., no sugar
[14] = No feces, 16 h at 37° C., no sugar
[15] = No feces, 38 h at 37° C., no sugar
[16] = No feces, 62 h at 37° C., no sugar

Chain of hemoglobin (P69905 2-142): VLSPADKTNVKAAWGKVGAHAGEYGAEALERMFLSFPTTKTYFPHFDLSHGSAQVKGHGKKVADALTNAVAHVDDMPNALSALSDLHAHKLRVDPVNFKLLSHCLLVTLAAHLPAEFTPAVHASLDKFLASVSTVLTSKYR
Chain of hemoglobin (P68871 2-147): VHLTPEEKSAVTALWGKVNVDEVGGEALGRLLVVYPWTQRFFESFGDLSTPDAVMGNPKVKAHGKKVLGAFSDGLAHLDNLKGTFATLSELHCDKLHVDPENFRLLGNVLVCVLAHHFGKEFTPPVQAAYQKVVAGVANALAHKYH

O=C(O)c1cccc(B(O)O)c1 [3C-PBA, 3-carboxyphenylboronic acid]
Hb concentration [1]: 296 µg/L | Recovery ratio with respect to Hb after 0 days [1]: 100% | Hb concentration [2]: 163 µg/L | Recovery ratio with respect to Hb after 0 days [2]: 55% | Hb concentration [3]: 68 µg/L | Recovery ratio with respect to Hb after 0 days [3]: 23% | Hb concentration [4]: 20 µg/L | Recovery ratio with respect to Hb after 0 days [4]: 7% | Hb concentration (Feces 1, 0 h at 37° C.): 296 µg/L | Recovery ratio with respect to Hb after 0 days (Feces 1, 0 h at 37° C.): 100% | Hb concentration (Feces 1, 16 h at 37° C.): 163 µg/L | Recovery ratio with respect to Hb after 0 days (Feces 1, 16 h at 37° C.): 55% | Hb concentration (Feces 1, 38 h at 37° C.): 68 µg/L | Recovery ratio with respect to Hb after 0 days (Feces 1, 38 h at 37° C.): 23% | Hb concentration (Feces 1, 62 h at 37° C.): 20 µg/L | Recovery ratio with respect to Hb after 0 days (Feces 1, 62 h at 37° C.): 7% | Hb concentration [5]: 288 µg/L | Recovery ratio with respect to Hb after 0 days [5]: 100% | Hb concentration [6]: 90 µg/L | Recovery ratio with respect to Hb after 0 days [6]: 31% | Hb concentration [7]: 8 µg/L | Recovery ratio with respect to Hb after 0 days [7]: 3% | Hb concentration [8]: 0 µg/L | Recovery ratio with respect to Hb after 0 days [8]: 0% | Hb concentration (Feces 2, 0 h at 37° C.): 288 µg/L | Recovery ratio with respect to Hb after 0 days (Feces 2, 0 h at 37° C.): 100% | Hb concentration (Feces 2, 16 h at 37° C.): 90 µg/L | Recovery ratio with respect to Hb after 0 days (Feces 2, 16 h at 37° C.): 31% | Hb concentration (Feces 2, 38 h at 37° C.): 8 µg/L | Recovery ratio with respect to Hb after 0 days (Feces 2, 38 h at 37° C.): 3% | Hb concentration (Feces 2, 62 h at 37° C.): 0 µg/L | Recovery ratio with respect to Hb after 0 days (Feces 2, 62 h at 37° C.): 0% | Hb concentration [9]: 281 µg/L | Recovery ratio with respect to Hb after 0 days [9]: 100% | Hb concentration [10]: 95 µg/L | Recovery ratio with respect to Hb after 0 days [10]: 34% | Hb concentration [11]: 5 µg/L | Recovery ratio with respect to Hb after 0 days [11]: 2% | Hb concentration [12]: 0 µg/L | Recovery ratio with respect to Hb after 0 days [12]: 0% | Hb concentration (Feces 3, 0 h at 37° C.): 281 µg/L | Recovery ratio with respect to Hb after 0 days (Feces 3, 0 h at 37° C.): 100% | Hb concentration (Feces 3, 16 h at 37° C.): 95 µg/L | Recovery ratio with respect to Hb after 0 days (Feces 3, 16 h at 37° C.): 34% | Hb concentration (Feces 3, 38 h at 37° C.): 5 µg/L | Recovery ratio with respect to Hb after 0 days (Feces 3, 38 h at 37° C.): 2% | Hb concentration (Feces 3, 62 h at 37° C.): 0 µg/L | Recovery ratio with respect to Hb after 0 days (Feces 3, 62 h at 37° C.): 0% | Hb concentration [13]: 299 µg/L | Recovery ratio with respect to Hb after 0 days [13]: 100% | Hb concentration [14]: 279 µg/L | Recovery ratio with respect to Hb after 0 days [14]: 94% | Hb concentration [15]: 264 µg/L | Recovery ratio with respect to Hb after 0 days [15]: 88% | Hb concentration [16]: 266 µg/L | Recovery ratio with respect to Hb after 0 days [16]: 89% | Hb concentration (No feces, 0 h at 37° C.): 299 µg/L | Recovery ratio with respect to Hb after 0 days (No feces, 0 h at 37° C.): 100% | Hb concentration (No feces, 16 h at 37° C.): 279 µg/L | Recovery ratio with respect to Hb after 0 days (No feces, 16 h at 37° C.): 94% | Hb concentration (No feces, 38 h at 37° C.): 264 µg/L | Recovery ratio with respect to Hb after 0 days (No feces, 38 h at 37° C.): 88% | Hb concentration (No feces, 62 h at 37° C.): 266 µg/L | Recovery ratio with respect to Hb after 0 days (No feces, 62 h at 37° C.): 89%
